Experiment [1] deals with T1, Muscarinic acetylcholine receptor M5 (Homo sapiens, UniProt P08912).
T1 sequence (P08912 whole entry): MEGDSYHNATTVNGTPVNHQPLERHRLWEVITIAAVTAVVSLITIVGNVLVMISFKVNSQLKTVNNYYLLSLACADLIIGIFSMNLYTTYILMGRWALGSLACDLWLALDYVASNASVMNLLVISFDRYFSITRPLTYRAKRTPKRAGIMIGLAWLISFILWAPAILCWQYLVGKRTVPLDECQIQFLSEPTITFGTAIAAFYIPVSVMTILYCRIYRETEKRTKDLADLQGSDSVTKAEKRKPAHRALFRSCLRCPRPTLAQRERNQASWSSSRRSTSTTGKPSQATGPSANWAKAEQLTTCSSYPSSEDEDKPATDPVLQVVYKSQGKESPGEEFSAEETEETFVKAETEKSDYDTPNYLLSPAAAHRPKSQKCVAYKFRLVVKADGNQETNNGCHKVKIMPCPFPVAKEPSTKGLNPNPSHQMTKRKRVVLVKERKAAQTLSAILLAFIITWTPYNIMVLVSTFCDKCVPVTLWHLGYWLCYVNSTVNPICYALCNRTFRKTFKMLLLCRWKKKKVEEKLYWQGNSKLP
Briefly: Positive allosteric modulator activity at human muscarinic acetylcholine receptor M5 expressed in CHO cells by fluorometric imaging plate reader. It counts as cell-based.

Experiment [2] deals with T1, Muscarinic acetylcholine receptor M5. Briefly: Negative allosteric modulator activity at human muscarinic acetylcholine receptor M5 expressed in CHO cells by fluorometric imaging plate reader. The format is cell-based.
A short description of experiment [3]: Inhibition of PKA (unknown origin). More on the design: species or system Homo sapiens.
The next experiment addresses Protein kinase C (PKC). Briefly: Inhibition of PKC (unknown origin). Also on record: species or system Homo sapiens.
Experiment [4] has as its target T2, Serine/threonine-protein kinase Sgk1 (Homo sapiens, UniProt O00141).
T2 sequence (O00141 whole entry): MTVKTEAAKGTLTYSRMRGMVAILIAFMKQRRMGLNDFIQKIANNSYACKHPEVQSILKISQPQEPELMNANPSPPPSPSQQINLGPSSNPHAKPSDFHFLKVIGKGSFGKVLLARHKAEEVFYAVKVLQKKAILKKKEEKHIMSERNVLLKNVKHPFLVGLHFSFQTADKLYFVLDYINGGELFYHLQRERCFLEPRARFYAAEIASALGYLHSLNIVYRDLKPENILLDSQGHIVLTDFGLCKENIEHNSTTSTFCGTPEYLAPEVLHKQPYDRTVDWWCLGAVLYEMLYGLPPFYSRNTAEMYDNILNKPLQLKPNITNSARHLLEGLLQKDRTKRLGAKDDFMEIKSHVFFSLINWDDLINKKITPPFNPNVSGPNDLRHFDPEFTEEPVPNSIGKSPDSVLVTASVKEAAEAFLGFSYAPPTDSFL
Briefly: Inhibition of SGK (unknown origin).

For experiment [5], the target named is T1, Muscarinic acetylcholine receptor M5. Briefly: Silent allosteric modulator activity at human muscarinic acetylcholine receptor M5 expressed in CHO cells by fluorometric imaging plate reader. The format is cell-based.
Experiment [6] shares this target. Briefly: Allosteric agonist activity at human muscarinic acetylcholine receptor M5.

What is called EC50 is the concentration that produces a half-maximal response. Higher therefore signals a less potent agent. The term IC50 denotes the midpoint of a concentration-inhibition curve.

Some results are limits rather than exact numbers.

Regarding `O=C(N[C@H]1C[C@@H](O)C1)c1ccc(C#Cc2cccc(F)c2)cn1`, the EC50 in experiment [1] stood at 0.033 µM.

With `COc1cccc(/C=N/N=C/c2cccc(OC)c2)c1`, a half-maximal response in experiment [2] (EC50) required 3 µM.

Take `CC(C)(N)c1ccc(-c2nc3ccccc3nc2-c2ccccc2)cc1`: the IC50 (in experiment [3]; at Protein kinase C (PKC); in experiment [4]) was more than 250 µM each time.

Take `Fc1cccc(/C=N/N=C/c2cccc(F)c2)c1`: in experiment [1], the EC50 was determined as 2.6 µM. That is a single-digit micromolar value.

The compound `Clc1cccc(/C=N/N=C/c2cccc(Cl)c2)c1` gave an EC50 in experiment [5] of 7.6 µM.

As to `O=C(N[C@H]1C[C@H](O)C1)c1ccc(C#Cc2cccc(F)c2)cn1`, a half-maximal response in experiment [6] (EC50) required 0.4 µM.

Source of the values: ChEMBL document CHEMBL3352585, “2013 Philip S. Portoghese Medicinal Chemistry Lectureship: drug discovery targeting allosteric sites” (J Med Chem, 2014).
